Laboratory results published in patent US11472812B2, “Anti-cancer compounds targeting Ral GTPases and methods of using the same” (The Regents of the University of Colorado, a body corporate, priority 2014, dated 2022).
Read-outs that look alike come from different tables or passages of the source.

Columns and labels:
[1] = system: H358 cells; assay: Soft agar colony formation (anchorage-independent growth); type: cell-based, human; details: for further growth inhibition by drug after siRNA knockdown of RalA and RalB: H358 cells with siRNA knockdown of RalA and RalB; for growth inhibition effect with overexpression of constitutively active RalAG23V or RalBG23V: H358 cells, stable overexpression
Method: (§1) The effects of RBC8 and BQU57 on human lung cancer cell growth were evaluated. Because Ral is well-known for its role in anchorage independence, we carried out growth inhibition assays in soft agar. Four human lung cancer cells H2122, H358, H460 and Calu6 were used in a series of experiments to determine drug uptake, biologic specificity, and effect. To measure growth inhibition of human lung cancer cells under anchorage-independent conditions in soft agar, cells were seeded into 6-well plates (coated with a base layer made of 2 ml of 1% low-melting-point agarose) at 15,000 cells per well in 3 ml of 0.4% low-melting-point agarose containing various concentration of drug. Two to four weeks (depending on cell line) after incubation, cells were stained with 1 mg/ml MTT and colonies were counted under a microscope.
(§2) For the chemo-genetic experiments, siRNA treated cells were seeded into soft agar in the presence of various concentrations of drug. For the overexpression experiments, H358 cells stably overexpressing FLAG, FLAG-RalA^G23V or FLAG-RalB^G23V were generated and cells were subjected to the soft agar colony formation assay in the presence of drug. Attempts to stably overexpress FLAG-RalA^G23V or FLAG-RalB^G23V in H2122 cells were unsuccessful and the rescue experiments with H2122 were carried out 72 hrs after the transient transfection with FLAG, FLAG-RalA^G23V or FLAG-RalB^G23V using the soft agar colony formation assay in the presence of drug.

[2] = system: H2122 cells; assay: as above; type: cell-based, human; details: for further growth inhibition by drug after siRNA knockdown of RalA and RalB: H2122 cells with siRNA knockdown of RalA and RalB; for growth inhibition effect with overexpression of constitutively active RalAG23V or RalBG23V: H2122 cells, transient transfection
Method: as §1, §2

[3] = Pharmacokinetics after single intraperitoneal injection; type: in vivo; details: 50.0 mg/kg i.p., n = 3, nude mice
Method: Inhibition of Ral activity and tumor growth were evaluated in human lung cancer mouse models. Pharmacokinetics (PK) of RBC8 and BQU57 were first analyzed in nude mice to test bioavailability. Following a single intraperitoneal injection (50 mg/Kg), blood samples were collected at time intervals from 0 to 5 h post-dose (9 time points).

[4] = target: T1, RalB-GDP (Homo sapiens, UniProt P11234, Q72L); assay: Surface Plasma Resonance (SPR) binding, Biacore 3000; details: RalB immobilized on CM5 chip; PBS pH 7.4, 1 μM GDP, 2 mM MgCl2, 3% DMSO
T1 construct: made in house
T1 sequence (P11234 1-206 Q72L): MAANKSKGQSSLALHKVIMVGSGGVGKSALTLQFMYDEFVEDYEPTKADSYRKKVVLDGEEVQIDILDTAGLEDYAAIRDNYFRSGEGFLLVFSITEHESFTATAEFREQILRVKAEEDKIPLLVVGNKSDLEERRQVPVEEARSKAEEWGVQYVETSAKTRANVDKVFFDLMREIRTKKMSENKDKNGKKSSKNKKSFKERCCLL
Method: Consequently, the binding of BQU57 to RalB-GDP was then determined using Isothermal Titration Calorimetry (ITC). ITC experiments were carried out using the MicroCal iTC200 system. Both protein and drug were prepared in 50 mM sodium phosphate, pH 7.6, 100 mM NaCl, and 1 mM MgCl2. Final DMSO concentration was adjusted to 1%. RalB-GDP protein (500 μM) were loaded into the syringe and titrated into drug (25 μM) or buffer alone as control. All experiments were carried out at 25° C. […] SPR experiments were carried out using the Biacore 3000 system. Running buffer: PBS, pH 7.4, 1 μM GDP, 2 mM MgCl2, 3% DMSO. Regeneration buffer: PBS, pH 7.4, 1 μM GDP, 2 mM Mg Cl2. RalB protein was immobilized on CM5 chip; samples of compound BQU57 in running buffer were injected at 30 μL/min for 60 s contact time followed by 5 minute regeneration.

[5] = target: T1, RalB-GDP; assay: TROSY 15N-HSQC NMR chemical shift perturbation; type: binding; details: 100 μM RalB-GDP, 100 μM compound
From the text: (§3) To confirm the direct binding of the compounds to the target, we used TROSY ^15N-HSQC (Transverse Relaxation-Optimized Heteronuclear Single Quantum Coherence) NMR. RalB (Q72L mutant) in a pET16b (Novagen) plasmid was a kind gift from Dr. Darerca Owen (Cambridge University). RalB was purified with additional steps for loading with GDP or the non-hydrolyzable form of GTP, GMPNPP (GNP, Sigma-Aldrich). Uniform ^13C^15N-double labeled protein was produced in M9 media supplemented with ^15N-NH4Cl and ^13C-glucose. Samples were prepared for NMR in 50 mM sodium phosphate, pH 7.6, 100 mM NaCl and 1 mM MgCl2. All NMR experiments were recorded on an Agilent 900 MHz system at 25° C. Resonance assignments for the RalB-GNP complex were obtained from previously published studies deposited in Biological Magnetic Resonance Bank (BMRB, code: 15230). Chemical shift assignments of the RalB-GDP complex were obtained independently using HNCACB, CBCA(CO)NH and COCNH-TOCSY experiments. All NMR data was processed using NMRPipe and analyzed using CCPNMR analysis program. Assignment were obtained by automated assignment using PINE followed by manual verification. ^15N-HSQC experiments were used to monitor amide shifts from the RalB protein (100 μM) following the addition of compound reconstituted in deuterated DMSO. DMSO concentrations in the final sample were 0.5% or 1%; control samples were made with 0.5% or 1% deuterated DMSO and all samples containing compounds were compared to their corresponding […] control.
(§4) Because only the NMR structure of RalB in complex with GNP has been solved (PDB code 2KE5, BMRB entry 15230), we focused on this isoform. The ^15N-HSQC NMR spectrum of RalB-GDP and RalB-GNP were first determined and the chemical shift differences were analyzed. NMR spectra were then recorded in the presence of RBC8 or DMSO control. Binding of small molecules to the protein was monitored by the perturbation of ^15N-HSQC protein amide peaks.
(§5) A detailed NMR titration of the binding between BQU57 and RalB-GDP was carried out. […] In the absence of a crystal structure of RalB-GDP, a homology model was generated based on the sequence similarity to RalA-GDP and the residues that experienced chemical shift changes in the presence of drug was mapped onto this model (FIG. 3E).

[6] = target: T2, RalB-GNP (Homo sapiens, UniProt P11234, Q72L); assay: TROSY 15N-HSQC NMR chemical shift perturbation; type: binding; details: 100 μM RalB-GNP, 100 μM compound
T2 construct: made in house
T2 sequence (P11234 1-206 Q72L): T1 sequence (P11234 1-206 Q72L)
From the text: as §3, §4, §5

## Cc1nn(C)c2c1C(c1ccc(C(F)(F)F)cc1)C(C#N)=C(N)O2 (stereo not shown) [BQU57, 6-amino-1,3-dimethyl-4-(4-(trifluoromethyl)phenyl)-1,4-dihydropyrano[2,3-c]pyrazole-5-carbonitrile]
[1]
  further growth inhibition by drug after siRNA knockdown of RalA and RalB: did not result in significant further inhibition
  growth inhibition effect with overexpression of constitutively active RalAG23V or RalBG23V: rescue
[1]; Homo sapiens, NCI-H358, read-out: IC50 (50% reduction in colony number)
  IC50: 1.3 µM
[2]
  further growth inhibition by drug after siRNA knockdown of RalA and RalB: did not result in significant further inhibition
  growth inhibition effect with overexpression of constitutively active RalAG23V or RalBG23V: rescue
[2]; Homo sapiens, NCI-H2122, read-out: IC50 (50% reduction in colony number)
  IC50: 2 µM
[3]
  Co: 41.6 ± 5.1 µM
[3]; mouse, blood, ip
  half-life: 1.5 ± 0.11 h
[3]; mouse, blood, ip, read-out: AUC0-5 hr
  AUC(0-t): 28600 ± 2100 ng·h/mL
[4]
  Kd: 4.7 ± 1.5 µM
[5]
  binding to RalB-GDP by 15N-HSQC chemical shift changes: binding to the predicted site
[6]
  binding to RalB-GNP by 15N-HSQC chemical shift changes: did not bind

## COc1ccc(OC)c(C2C(C#N)=C(N)Oc3n[nH]c(-c4ccc5ccccc5c4)c32)c1 (stereo not shown) [RBC8]
[1]; H358, soft agar, 2-4 weeks, read-out: IC50 (50% reduction in colony number)
  IC50: 3.4 µM
[1]
  further growth inhibition by drug after siRNA knockdown of RalA and RalB: did not result in significant further inhibition
  growth inhibition effect with overexpression of constitutively active RalAG23V or RalBG23V: rescue
[2]; H2122, soft agar, 2-4 weeks, read-out: IC50 (50% reduction in colony number)
  IC50: 3.5 µM
[2]
  further growth inhibition by drug after siRNA knockdown of RalA and RalB: did not result in significant further inhibition
  growth inhibition effect with overexpression of constitutively active RalAG23V or RalBG23V: rescue
[3]
  Co: 41.2 ± 4.2 µM
  T1/2: 0.58 ± 0.26 h
[5]
  binding to RalB-GDP by 15N-HSQC chemical shift changes: showed changes in peak position of representative residues located in the allosteric site
[6]
  binding to RalB-GNP by 15N-HSQC chemical shift changes: did not bind
